Assay results published in paper PMC3399817 (PLoS ONE, 2012).

Legend:
Experiment in all cases: KINOMEscan
Assay type in all cases: binding
PIM2 = target: T1, PIM2 (Homo sapiens, UniProt Q9P1W9); conditions: PIM2, 1 uM
T1 construct: purchased Ambit KINOMEscan (DiscoverX)
How it was run: (§1)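 A binding-competition profile was run with every compound fixed at 1 μM; hits were kinases showing inhibited substrate binding.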

MUSK = target: T2, MUSK (Homo sapiens, UniProt O15146); conditions: 1 uM
T2 construct: purchased Ambit KINOMEscan (DiscoverX)
How it was run: as §1

MAP3K1 = target: T3, MAP3K1 (Homo sapiens, UniProt Q13233); conditions: MAP3K1, 1 uM
T3 construct: purchased Ambit KINOMEscan (DiscoverX)
How it was run: as §1

MRCKA = target: T4, MRCKA (Homo sapiens, UniProt Q5VT25); conditions: 1 uM
T4 construct: purchased Ambit KINOMEscan (DiscoverX)
How it was run: as §1

CLK3 = target: T5, CLK3 (Homo sapiens, UniProt P49761); conditions: CLK3, 1 uM
T5 construct: purchased Ambit KINOMEscan (DiscoverX)
T5 sequence (P49761 whole entry): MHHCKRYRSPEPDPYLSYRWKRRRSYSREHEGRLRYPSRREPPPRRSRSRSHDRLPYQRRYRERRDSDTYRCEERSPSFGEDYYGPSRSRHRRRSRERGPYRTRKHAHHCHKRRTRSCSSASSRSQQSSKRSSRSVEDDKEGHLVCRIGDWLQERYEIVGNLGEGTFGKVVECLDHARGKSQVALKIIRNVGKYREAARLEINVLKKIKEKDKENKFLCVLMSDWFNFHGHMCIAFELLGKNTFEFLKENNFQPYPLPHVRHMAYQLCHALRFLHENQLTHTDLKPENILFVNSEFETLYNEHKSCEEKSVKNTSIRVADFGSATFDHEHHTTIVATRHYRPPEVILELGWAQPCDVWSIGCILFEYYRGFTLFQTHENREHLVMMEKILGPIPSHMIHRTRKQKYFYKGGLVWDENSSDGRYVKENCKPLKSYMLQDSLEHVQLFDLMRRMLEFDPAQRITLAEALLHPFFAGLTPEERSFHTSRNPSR
How it was run: as §1

STK16 = target: T6, STK16 (Homo sapiens, UniProt O75716); conditions: STK16, 1 uM
T6 construct: purchased Ambit KINOMEscan (DiscoverX)
How it was run: as §1

BMX = target: T7, BMX (Homo sapiens, UniProt P51813); conditions: 1 uM
T7 construct: purchased Ambit KINOMEscan (DiscoverX)
T7 sequence (P51813 whole entry): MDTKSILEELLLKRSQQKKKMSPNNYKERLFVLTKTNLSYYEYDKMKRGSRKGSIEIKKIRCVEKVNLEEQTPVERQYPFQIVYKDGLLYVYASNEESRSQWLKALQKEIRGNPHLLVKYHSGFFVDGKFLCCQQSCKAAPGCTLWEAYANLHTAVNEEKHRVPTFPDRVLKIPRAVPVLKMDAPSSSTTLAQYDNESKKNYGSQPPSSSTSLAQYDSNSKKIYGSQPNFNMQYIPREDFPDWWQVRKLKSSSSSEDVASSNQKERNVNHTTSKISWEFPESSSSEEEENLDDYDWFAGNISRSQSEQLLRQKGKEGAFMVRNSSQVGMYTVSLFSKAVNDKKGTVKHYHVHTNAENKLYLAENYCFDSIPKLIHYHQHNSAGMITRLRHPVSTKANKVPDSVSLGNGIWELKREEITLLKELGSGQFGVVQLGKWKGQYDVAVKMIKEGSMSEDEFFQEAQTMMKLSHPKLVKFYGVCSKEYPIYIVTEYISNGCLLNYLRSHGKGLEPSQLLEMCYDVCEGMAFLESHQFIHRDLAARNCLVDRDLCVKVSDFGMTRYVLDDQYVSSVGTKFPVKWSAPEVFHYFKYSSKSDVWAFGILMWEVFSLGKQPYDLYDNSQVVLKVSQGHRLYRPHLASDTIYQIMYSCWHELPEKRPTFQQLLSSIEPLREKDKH
How it was run: as §1

CTK = target: T8, CTK (Homo sapiens, UniProt P42679); conditions: 1 uM
T8 construct: purchased Ambit KINOMEscan (DiscoverX)
How it was run: as §1

DCAMKL3 = target: T9, DCAMKL3 (Homo sapiens, UniProt Q9C098); conditions: DCAMKL3, 1 uM
T9 construct: purchased Ambit KINOMEscan (DiscoverX)
How it was run: as §1

LKB1 = target: T10, LKB1 (Homo sapiens, UniProt Q15831); conditions: LKB1, 1 uM
T10 construct: purchased Ambit KINOMEscan (DiscoverX)
How it was run: as §1

CSNK1G3 = target: T11, CSNK1G3 (Homo sapiens, UniProt Q9Y6M4); conditions: CSNK1G3, 1 uM
T11 construct: purchased Ambit KINOMEscan (DiscoverX)
T11 sequence (Q9Y6M4 whole entry): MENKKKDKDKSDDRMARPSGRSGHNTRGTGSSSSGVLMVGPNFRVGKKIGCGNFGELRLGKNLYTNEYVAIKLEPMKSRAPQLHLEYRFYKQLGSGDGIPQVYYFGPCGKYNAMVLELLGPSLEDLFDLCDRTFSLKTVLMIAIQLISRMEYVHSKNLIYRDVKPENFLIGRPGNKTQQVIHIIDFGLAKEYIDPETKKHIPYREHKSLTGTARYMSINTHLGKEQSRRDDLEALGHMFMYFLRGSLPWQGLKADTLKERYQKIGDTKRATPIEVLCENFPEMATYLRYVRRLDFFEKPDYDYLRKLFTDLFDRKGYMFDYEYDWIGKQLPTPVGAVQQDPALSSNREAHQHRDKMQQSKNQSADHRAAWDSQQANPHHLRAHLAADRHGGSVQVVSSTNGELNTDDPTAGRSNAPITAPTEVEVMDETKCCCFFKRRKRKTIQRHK
How it was run: as §1

ASK2 = target: T12, ASK2 (Homo sapiens, UniProt O95382); conditions: ASK2, 1 uM
T12 construct: purchased Ambit KINOMEscan (DiscoverX)
How it was run: as §1

CDC2L1 = target: T13, CDC2L1 (Homo sapiens, UniProt P21127); conditions: CDC2L1, 1 uM
T13 construct: purchased Ambit KINOMEscan (DiscoverX)
How it was run: as §1

MYO3B = target: T14, MYO3B (Homo sapiens, UniProt Q8WXR4); conditions: 1 uM
T14 construct: purchased Ambit KINOMEscan (DiscoverX)
How it was run: as §1

ZAP70 = target: T15, ZAP70 (Homo sapiens, UniProt P43403); conditions: ZAP70, 1 uM
T15 construct: purchased Ambit KINOMEscan (DiscoverX)
How it was run: as §1

MEK4 = target: T16, MEK4 (Homo sapiens, UniProt P45985); conditions: MEK4, 1 uM
T16 construct: purchased Ambit KINOMEscan (DiscoverX)
How it was run: as §1

[1] = target: T17, ABL1(Q252H)-nonphosphorylated (Homo sapiens, UniProt P00519, Q252H); conditions: 1 uM
T17 construct: purchased Ambit KINOMEscan (DiscoverX)
How it was run: as §1

NIM1 = target: T18, NIM1 (Homo sapiens, UniProt Q8IY84); conditions: NIM1, 1 uM
T18 construct: purchased Ambit KINOMEscan (DiscoverX)
How it was run: as §1

PIK3CB = target: T19, PIK3CB (Homo sapiens, UniProt P42338); conditions: 1 uM
T19 construct: purchased Ambit KINOMEscan (DiscoverX)
How it was run: as §1

AXL = target: T20, AXL (Homo sapiens, UniProt P30530); conditions: 1 uM
T20 construct: purchased Ambit KINOMEscan (DiscoverX)
T20 sequence (P30530 26-894): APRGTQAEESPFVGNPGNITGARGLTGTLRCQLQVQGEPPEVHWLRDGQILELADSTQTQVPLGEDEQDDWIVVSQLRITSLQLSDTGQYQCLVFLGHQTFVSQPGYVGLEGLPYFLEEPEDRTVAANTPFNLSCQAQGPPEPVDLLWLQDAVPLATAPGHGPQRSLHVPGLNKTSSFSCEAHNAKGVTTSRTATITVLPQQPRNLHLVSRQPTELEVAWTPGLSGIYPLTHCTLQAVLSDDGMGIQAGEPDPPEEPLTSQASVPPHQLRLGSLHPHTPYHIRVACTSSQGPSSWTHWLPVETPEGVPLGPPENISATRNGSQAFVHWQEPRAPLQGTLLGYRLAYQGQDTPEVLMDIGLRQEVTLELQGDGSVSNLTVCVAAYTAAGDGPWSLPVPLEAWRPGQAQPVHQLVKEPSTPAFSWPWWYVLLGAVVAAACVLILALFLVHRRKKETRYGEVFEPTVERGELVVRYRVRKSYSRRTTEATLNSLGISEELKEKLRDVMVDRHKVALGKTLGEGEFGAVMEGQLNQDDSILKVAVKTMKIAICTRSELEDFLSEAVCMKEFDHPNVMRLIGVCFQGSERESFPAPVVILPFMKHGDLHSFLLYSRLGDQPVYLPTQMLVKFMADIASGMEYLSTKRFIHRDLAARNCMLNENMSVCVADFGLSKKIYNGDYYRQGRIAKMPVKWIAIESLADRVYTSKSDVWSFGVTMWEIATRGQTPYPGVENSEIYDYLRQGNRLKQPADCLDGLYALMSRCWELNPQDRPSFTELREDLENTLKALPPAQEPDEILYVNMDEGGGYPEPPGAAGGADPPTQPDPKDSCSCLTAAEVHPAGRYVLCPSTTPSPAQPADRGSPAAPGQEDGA
How it was run: as §1

EPHA4 = target: T21, EPHA4 (Homo sapiens, UniProt P54764); conditions: EPHA4, 1 uM
T21 construct: purchased Ambit KINOMEscan (DiscoverX)
How it was run: as §1

PIP5K2B = target: T22, PIP5K2B (Homo sapiens, UniProt P78356); conditions: 1 uM
T22 construct: purchased Ambit KINOMEscan (DiscoverX)
How it was run: as §1

MEK2 = target: T23, MEK2 (Homo sapiens, UniProt P36507); conditions: MEK2, 1 uM
T23 construct: purchased Ambit KINOMEscan (DiscoverX)
How it was run: as §1

IRAK1 = target: T24, IRAK1 (Homo sapiens, UniProt P51617); conditions: IRAK1, 1 uM
T24 construct: purchased Ambit KINOMEscan (DiscoverX)
How it was run: as §1

NEK5 = target: T25, NEK5 (Homo sapiens, UniProt Q6P3R8); conditions: NEK5, 1 uM
T25 construct: purchased Ambit KINOMEscan (DiscoverX)
How it was run: as §1

OSR1 = target: T26, OSR1 (Homo sapiens, UniProt O95747); conditions: OSR1, 1 uM
T26 construct: purchased Ambit KINOMEscan (DiscoverX)
T26 sequence (O95747 whole entry): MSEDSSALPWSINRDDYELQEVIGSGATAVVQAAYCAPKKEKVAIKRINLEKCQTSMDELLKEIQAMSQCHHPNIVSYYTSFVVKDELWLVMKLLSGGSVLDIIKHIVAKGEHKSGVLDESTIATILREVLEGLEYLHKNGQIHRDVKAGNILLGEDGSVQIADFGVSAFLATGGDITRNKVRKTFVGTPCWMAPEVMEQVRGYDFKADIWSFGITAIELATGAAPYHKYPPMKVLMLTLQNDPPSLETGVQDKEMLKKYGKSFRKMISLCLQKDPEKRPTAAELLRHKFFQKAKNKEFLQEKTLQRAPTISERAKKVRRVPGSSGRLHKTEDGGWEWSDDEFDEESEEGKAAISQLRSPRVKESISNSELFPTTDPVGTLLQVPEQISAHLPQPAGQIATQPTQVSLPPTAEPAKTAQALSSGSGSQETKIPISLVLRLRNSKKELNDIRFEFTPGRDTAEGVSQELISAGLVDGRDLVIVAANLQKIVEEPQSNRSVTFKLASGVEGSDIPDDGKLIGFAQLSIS
How it was run: as §1

SRMS = target: T27, SRMS (Homo sapiens, UniProt Q9H3Y6); conditions: 1 uM
T27 construct: purchased Ambit KINOMEscan (DiscoverX)
How it was run: as §1

PHKG2 = target: T28, PHKG2 (Homo sapiens, UniProt P15735); conditions: PHKG2, 1 uM
T28 construct: purchased Ambit KINOMEscan (DiscoverX)
How it was run: as §1

DMPK2 = target: T29, DMPK2 (Homo sapiens, UniProt Q6DT37); conditions: DMPK2, 1 uM
T29 construct: purchased Ambit KINOMEscan (DiscoverX)
How it was run: as §1

PIK3CA(Q546K) = target: T30, PIK3CA(Q546K) (Homo sapiens, UniProt P42336, Q546K); conditions: 1 uM
T30 construct: purchased Ambit KINOMEscan (DiscoverX)
T30 sequence (P42336 whole entry Q546K): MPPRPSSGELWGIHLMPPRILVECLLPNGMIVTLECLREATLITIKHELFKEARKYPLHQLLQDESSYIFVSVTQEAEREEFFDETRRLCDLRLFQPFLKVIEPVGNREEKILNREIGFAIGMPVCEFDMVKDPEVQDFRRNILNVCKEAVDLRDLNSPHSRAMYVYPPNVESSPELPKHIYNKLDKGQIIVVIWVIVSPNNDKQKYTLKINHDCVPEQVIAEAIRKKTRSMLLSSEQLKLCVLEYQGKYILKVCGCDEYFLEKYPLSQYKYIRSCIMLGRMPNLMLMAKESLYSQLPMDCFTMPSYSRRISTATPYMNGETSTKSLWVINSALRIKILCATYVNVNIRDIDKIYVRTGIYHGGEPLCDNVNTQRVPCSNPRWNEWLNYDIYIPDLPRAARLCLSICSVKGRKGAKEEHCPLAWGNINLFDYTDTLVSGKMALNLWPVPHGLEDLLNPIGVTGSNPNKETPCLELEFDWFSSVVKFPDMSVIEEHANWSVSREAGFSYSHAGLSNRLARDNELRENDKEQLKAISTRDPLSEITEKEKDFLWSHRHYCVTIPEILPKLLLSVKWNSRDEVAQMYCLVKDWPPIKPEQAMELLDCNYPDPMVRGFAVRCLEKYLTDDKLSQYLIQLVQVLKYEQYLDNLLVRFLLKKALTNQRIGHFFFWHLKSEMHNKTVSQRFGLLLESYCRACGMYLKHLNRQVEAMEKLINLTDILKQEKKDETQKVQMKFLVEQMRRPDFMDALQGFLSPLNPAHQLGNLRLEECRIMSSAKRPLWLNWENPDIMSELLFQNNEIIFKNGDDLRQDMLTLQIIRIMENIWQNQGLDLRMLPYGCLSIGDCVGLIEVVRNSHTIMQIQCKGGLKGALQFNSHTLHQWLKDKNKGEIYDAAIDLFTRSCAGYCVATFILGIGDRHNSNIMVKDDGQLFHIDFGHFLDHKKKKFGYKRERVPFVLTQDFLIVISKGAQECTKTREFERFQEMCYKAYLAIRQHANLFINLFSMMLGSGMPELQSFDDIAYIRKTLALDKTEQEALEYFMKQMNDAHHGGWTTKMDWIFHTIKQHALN
How it was run: as §1

IKK-alpha = target: T31, IKK-alpha (Homo sapiens, UniProt O15111); conditions: 1 uM
T31 construct: purchased Ambit KINOMEscan (DiscoverX)
How it was run: as §1

ERK4 = target: T32, ERK4 (Homo sapiens, UniProt P31152); conditions: ERK4, 1 uM
T32 construct: purchased Ambit KINOMEscan (DiscoverX)
How it was run: as §1

CDK11 = target: T33, CDK11 (Homo sapiens, UniProt Q9BWU1); conditions: CDK11, 1 uM
T33 construct: purchased Ambit KINOMEscan (DiscoverX)
How it was run: as §1

FLT3(ITD) = conditions: 1 uM
How it was run: as §1

TRKC = target: T34, TRKC (Homo sapiens, UniProt Q16288); conditions: 1 uM
T34 construct: purchased Ambit KINOMEscan (DiscoverX)
T34 sequence (Q16288 32-839): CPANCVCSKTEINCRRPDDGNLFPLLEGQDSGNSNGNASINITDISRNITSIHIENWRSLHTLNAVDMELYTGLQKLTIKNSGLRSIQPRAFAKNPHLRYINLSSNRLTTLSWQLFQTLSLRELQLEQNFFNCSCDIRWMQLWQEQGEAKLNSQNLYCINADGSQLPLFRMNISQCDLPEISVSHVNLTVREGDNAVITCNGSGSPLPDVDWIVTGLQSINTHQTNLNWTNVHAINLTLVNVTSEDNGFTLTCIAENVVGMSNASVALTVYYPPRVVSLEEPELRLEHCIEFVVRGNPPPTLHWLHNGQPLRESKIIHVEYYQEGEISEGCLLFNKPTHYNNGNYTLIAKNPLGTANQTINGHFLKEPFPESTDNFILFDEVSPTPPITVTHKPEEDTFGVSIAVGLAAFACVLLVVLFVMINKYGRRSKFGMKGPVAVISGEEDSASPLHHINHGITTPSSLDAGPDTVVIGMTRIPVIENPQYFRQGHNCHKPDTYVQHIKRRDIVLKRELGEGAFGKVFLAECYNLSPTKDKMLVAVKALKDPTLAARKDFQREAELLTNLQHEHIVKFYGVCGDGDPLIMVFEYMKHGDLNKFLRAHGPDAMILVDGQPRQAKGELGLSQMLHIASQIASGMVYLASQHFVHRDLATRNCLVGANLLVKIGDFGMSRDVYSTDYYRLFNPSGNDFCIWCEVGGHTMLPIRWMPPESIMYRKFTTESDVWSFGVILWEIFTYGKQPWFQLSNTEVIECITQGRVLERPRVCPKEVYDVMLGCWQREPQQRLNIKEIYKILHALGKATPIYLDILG
How it was run: as §1

SIK = target: T35, SIK (Homo sapiens, UniProt P57059); conditions: 1 uM
T35 construct: purchased Ambit KINOMEscan (DiscoverX)
How it was run: as §1

EPHA8 = target: T36, EPHA8 (Homo sapiens, UniProt P29322); conditions: EPHA8, 1 uM
T36 construct: purchased Ambit KINOMEscan (DiscoverX)
How it was run: as §1

[2] = target: T37, JAK3(JH1domain-catalytic) (Homo sapiens, UniProt P52333); conditions: 1 uM
T37 construct: JAK3(JH1domain-catalytic); purchased Ambit KINOMEscan (DiscoverX)
How it was run: as §1

TYRO3 = target: T38, TYRO3 (Homo sapiens, UniProt Q06418); conditions: TYRO3, 1 uM
T38 construct: purchased Ambit KINOMEscan (DiscoverX)
How it was run: as §1

MAP4K5 = target: T39, MAP4K5 (Homo sapiens, UniProt Q9Y4K4); conditions: MAP4K5, 1 uM
T39 construct: purchased Ambit KINOMEscan (DiscoverX)
How it was run: as §1

Structure (SMILES)	% binding compared to no inhibitor control (PIM2) [%]	% binding compared to no inhibitor control (MUSK) [%]	% binding compared to no inhibitor control (MAP3K1) [%]	% binding compared to no inhibitor control (MRCKA) [%]	% binding compared to no inhibitor control (CLK3) [%]	% binding compared to no inhibitor control (STK16) [%]	% binding compared to no inhibitor control (BMX) [%]	% binding compared to no inhibitor control (CTK) [%]	% binding compared to no inhibitor control (DCAMKL3) [%]	% binding compared to no inhibitor control (LKB1) [%]	% binding compared to no inhibitor control (CSNK1G3) [%]	% binding compared to no inhibitor control (ASK2) [%]	% binding compared to no inhibitor control (CDC2L1) [%]	% binding compared to no inhibitor control (MYO3B) [%]	% binding compared to no inhibitor control (ZAP70) [%]	% binding compared to no inhibitor control (MEK4) [%]	% binding compared to no inhibitor control [1] [%]	% binding compared to no inhibitor control (NIM1) [%]	% binding compared to no inhibitor control (PIK3CB) [%]	% binding compared to no inhibitor control (AXL) [%]	further results
COc1ccc(-c2cc3nccn3c(Nc3ncccc3C(N)=O)n2)cc1OC.Cl.Cl [BAY61-3606, 2-[7-(3,4-dimethoxyphenyl)-imidazo [1,2-c]pyrimidin-5-ylamino] nicotinamide dihydrochloride, reference compound]	87	76	100	83	100	30	95	44	100	95	81	81	95	72	9	45	85	88	92	92	% binding compared to no inhibitor control (EPHA4): 91%; % binding compared to no inhibitor control (PIP5K2B): 100%; % binding compared to no inhibitor control (MEK2): 86%; % binding compared to no inhibitor control (IRAK1): 8%; % binding compared to no inhibitor control (NEK5): 86%; % binding compared to no inhibitor control (OSR1): 100%; % binding compared to no inhibitor control (SRMS): 65%; % binding compared to no inhibitor control (PHKG2): 26%; % binding compared to no inhibitor control (DMPK2): 86%; % binding compared to no inhibitor control (PIK3CA(Q546K)): 87%; % binding compared to no inhibitor control (IKK-alpha): 0.25%; % binding compared to no inhibitor control (ERK4): 87%; % binding compared to no inhibitor control (CDK11): 100%; % binding compared to no inhibitor control (FLT3(ITD)): 2.1%; % binding compared to no inhibitor control (TRKC): 92%; % binding compared to no inhibitor control (SIK): 80%; % binding compared to no inhibitor control (EPHA8): 83%; % binding compared to no inhibitor control [2]: 100%; % binding compared to no inhibitor control (TYRO3): 94%; % binding compared to no inhibitor control (MAP4K5): 80%
COc1ccccc1Nc1nc(-c2ccc(OC)c(OC)c2)cc2nccn12 [BAY derivative 6]	91	100	100	79	100	47	95	98	100	72	100	100	100	100	100	100	58	100	100	89	% binding compared to no inhibitor control (EPHA4): 92%; % binding compared to no inhibitor control (PIP5K2B): 100%; % binding compared to no inhibitor control (MEK2): 100%; % binding compared to no inhibitor control (IRAK1): 92%; % binding compared to no inhibitor control (NEK5): 72%; % binding compared to no inhibitor control (OSR1): 100%; % binding compared to no inhibitor control (SRMS): 97%; % binding compared to no inhibitor control (PHKG2): 100%; % binding compared to no inhibitor control (DMPK2): 88%; % binding compared to no inhibitor control (PIK3CA(Q546K)): 100%; % binding compared to no inhibitor control (IKK-alpha): 100%; % binding compared to no inhibitor control (ERK4): 100%; % binding compared to no inhibitor control (CDK11): 100%; % binding compared to no inhibitor control (FLT3(ITD)): 82%; % binding compared to no inhibitor control (TRKC): 98%; % binding compared to no inhibitor control (SIK): 100%; % binding compared to no inhibitor control (EPHA8): 100%; % binding compared to no inhibitor control [2]: 100%; % binding compared to no inhibitor control (TYRO3): 67%; % binding compared to no inhibitor control (MAP4K5): 100%
